Measured values taken from patent US20210246115A1 (Bioimics AB, priority 2017, published 2021).
Structures can show the parent of a compound that is named as a salt. Where two headings read alike, the source gives them in different places.

How the values were obtained:
H. influenzae ATCC 49247 = experiment: MIC, H. influenzae ATCC 49247; format: cell-based; conditions: Haemophilus influenzae, ATCC49247; Table XIV B. Gram-negative bacteria
S. pneumoniae ATCC 49619 = experiment: MIC, S. pneumoniae ATCC 49619; format: cell-based; conditions: Streptococcus pneumoniae, ATCC49619; Table XIV A. Gram-positive bacteria
E. faecium ATCC 700221 = experiment: MIC, E. faecium ATCC 700221; format: cell-based; conditions: Enterococcus faecium
[1] = tested on: E. coli RNase P RNA, M1 RNA; experiment: Inhibition of bacterial RNase P activity, IC50 determination (cleavage of pATSerUG by M1 RNA); format: biochemical; conditions: NI: No inhibition
[2] = tested on: Escherichia coli (ATCC25922); experiment: MIC, broth microdilution (CLSI), Escherichia coli; conditions: Escherichia coli
K. pneumoniae ATCC 43816 = experiment: MIC, K. pneumoniae ATCC 43816; format: cell-based; conditions: Klebsiella pneumoniae, ATCC43816; Table XIV B. Gram-negative bacteria
[3] = tested on: Pseudomonas aeruginosa (ATCC27853); experiment: MIC, broth microdilution (CLSI), Pseudomonas aeruginosa; format: cell-based
[4] = tested on: P. aeruginosa NTUH974 (MDR); experiment: MIC, P. aeruginosa NTUH974 (MDR); format: cell-based; conditions: Pseudomonas aeruginosa, read-out: P. aeruginosa NTUH974 (MDR) MIC
[5] = tested on: Staphylococcus aureus (ATCC25923); experiment: MIC, broth microdilution (CLSI), Staphylococcus aureus ATCC25923; conditions: Staphylococcus aureus, ATCC25923, read-out: S. aureus ATCC 25923 MIC
[6] = tested on: Staphylococcus aureus subsp. aureus (ATCC29213); experiment: MIC, broth microdilution (CLSI), Staphylococcus aureus ATCC29213; format: cell-based; conditions: Staphylococcus aureus
[7] = tested on: S. aureus MRSA ATCC 33591; experiment: MIC, S. aureus MRSA ATCC 33591; format: cell-based; conditions: Staphylococcus aureus, read-out: S. aureus MRSA ATCC 33591 MIC
[8] = tested on: N. gonorrhoeae ATCC 700825; experiment: MIC, N. gonorrhoeae ATCC 700825; format: cell-based; conditions: Neisseria gonorrhoeae, ATCC700825; Table XIV B. Gram-negative bacteria
[9] = tested on: Enterococcus faecalis (ATCC29212); experiment: MIC, broth microdilution (CLSI), Enterococcus faecalis; format: cell-based
A. baumannii ATCC 17978 = experiment: MIC, A. baumannii ATCC 17978; format: cell-based; conditions: Acinetobacter baumannii, ATCC17978; Table XIV B. Gram-negative bacteria
[10] = tested on: E. coli JW5503 (efflux defective); experiment: MIC, E. coli JW5503 (efflux defective); format: cell-based; conditions: Escherichia coli, read-out: E. coli JW5503 (efflux defective) MIC
[11] = ATCC700221, Table XIV A. Gram-positive bacteria, read-out: E. faecium ATCC 700221 MIC
[12] = ATCC25922, read-out: E. coli ATCC 25922 MIC, Table XIII
[13] = ATCC25922, read-out: E. coli ATCC 25922 MIC, Table XIV B. Gram-negative bacteria
[14] = ATCC27853, Table XIV B. Gram-negative bacteria, read-out: P. aeruginosa ATCC 27853 MIC
[15] = Table XIV B. Gram-negative bacteria
[16] = ATCC29213, Table XIV A. Gram-positive bacteria, read-out: S. aureus ATCC 29213 MIC
[17] = Table XIV A. Gram-positive bacteria
[18] = ATCC29212, Table XIV A. Gram-positive bacteria, read-out: E. faecalis ATCC 29212 MIC
[19] = ATCC700221, read-out: E. faecium ATCC 700221 MIC
[20] = ATCC27853, read-out: P. aeruginosa ATCC 27853 MIC
[21] = ATCC29213, read-out: S. aureus ATCC 29213 MIC, Table XIV A. Gram-positive bacteria
[22] = ATCC29212, read-out: E. faecalis ATCC 29212 MIC

| SMILES | MIC (H. influenzae ATCC 49247) [µg/mL] | MIC (S. pneumoniae ATCC 49619) [µg/mL] | MIC (E. faecium ATCC 700221; [11]) [µg/mL] | IC50 [1] [µM] | MIC [2, 12] [µg/mL] | MIC [2, 13] [µg/mL] | MIC (K. pneumoniae ATCC 43816) [µg/mL] | MIC [3, 14] [µg/mL] | MIC [4, 15] [µg/mL] | MIC [5] [µg/mL] | MIC [6, 16] [µg/mL] | MIC [7, 17] [µg/mL] | MIC [8] [µg/mL] | MIC [9, 18] [µg/mL] | MIC (A. baumannii ATCC 17978) [µg/mL] | MIC [10] [µg/mL] | MIC (E. faecium ATCC 700221; [19]) [µg/mL] | MIC [3, 20] [µg/mL] | MIC [4] [µg/mL] | MIC [6, 21] [µg/mL] | further results |
| --- | --- | --- | --- | --- | --- | --- | --- | --- | --- | --- | --- | --- | --- | --- | --- | --- | --- | --- | --- | --- | --- |
| Cc1cccc(C(CC(=O)NCCC2CCNCC2)c2cn(CC3CCCCC3)c3ccc(Br)cc23)c1.Cl (stereo not shown) [Compound 120, 3-(5-bromo-1-(cyclohexylmethyl)-1H-indol-3-yl)-N-(2-(piperidin-4-yl)ethyl)-3-(m-tolyl)propanamide hydrochloride salt] | 16 | 16 | 4 | 11 | > 512 | 32 | 64 | 64 | 64 | 2 | 2 | 32 | 2 | 4 | 64 | 16 |  |  |  |  |  |
| Cc1cccc(C(CC(=O)Nc2ccc(CN)cc2)c2cn(CC3CCCCC3)c3ccccc23)c1.Cl (stereo not shown) [Compound 139, N-(4-(aminomethyl)phenyl)-3-(1-(cyclohexylmethyl)-1H-indol-3-yl)-3-(m-tolyl)propanamide hydrochloride salt] | 16 | 16 | 4 | 46 | > 512 | > 128 | > 128 | > 128 | > 128 | 2 | 4 | 8 | 2 | 4 | > 128 | 32 |  |  |  |  |  |
| Cc1cccc(C(CCN2CCC(N)CC2)c2cn(CC3CCCCC3)c3ccccc23)c1 (stereo not shown) [Compound 216, 1-(3-(1-(cyclohexylmethyl)-1H-indol-3-yl)-3-(m-tolyl)propyl)piperidin-4-amine hydrochloride salt] | 4 | 8 |  | 25 | 4 | 8 | 128 |  |  | 4 |  |  | 2 |  | 8 | 4 | 2 | 64 | 64 | 4 | MIC [7]: 4 µg/mL; MIC [9, 22]: 4 µg/mL |
| Cc1ccccc1C(CCNC1CCC(N)CC1)c1cn(CC2CCCCC2)c2ccccc12 (stereo not shown) [Compound 186, N1-(3-(1-(cyclohexylmethyl)-1H-indol-3-yl)-3-(o-tolyl)propyl)cyclohexane-1,4-diamine hydrochloride salt] | 8 | 8 |  | 3.6 | 4 | 4 | 8 |  |  | 4 |  |  | 2 |  | 4 | 2 | 2 | 16 | 32 | 4 | MIC ([6]; ATCC29213, read-out: S. aureus ATCC 29213 MIC, Table XIII): 4 µg/mL; MIC [7]: 4 µg/mL; MIC [9, 22]: 4 µg/mL |
| NC1CCC(NC(=O)CC(c2cccc(OC(F)(F)F)c2)c2cn(CC3CCCCC3)c3ccccc23)CC1 [Compound 143, N-((1S,4S)-4-aminocyclohexyl)-3-(1-(cyclohexylmethyl)-1H-indol-3-yl)-3-(3-(trifluoromethoxy)phenyl) propanamide hydrochloride salt] | 16 | 16 |  | 20 | > 512 | > 128 | > 128 |  |  | 2 |  |  | 2 |  | > 128 | 64 | 4 | > 128 | > 128 | 4 | MIC [7]: 16 µg/mL; MIC [9, 22]: 4 µg/mL |
| NC1CCC(NCCC(c2cccc(Cl)c2)c2cn(CC3CCCCC3)c3ccccc23)CC1 [Compound 170, (1S,4S)-N1-(3-(3-chlorophenyl)-3-(1-(cyclohexylmethyl)-1H-indol-3-yl)propyl) cyclohexane-1,4-diamine hydrochloride salt] | 4 | 8 | 2 | 16 | 4 | 4 | 8 | 16 | 32 | 2 | 2 | 4 | 2 | 2 | 4 | 2 |  |  |  |  |  |
